30 molecules from patent US9115101B2 (Genentech, Inc., priority 2012, dated 2015) can be followed below.

The test addresses T1, RORc ligand binding domain (Homo sapiens, UniProt P51449).
T1 construct: host or cells: E. coli
T1 sequence (P51449 269-508 limits assumed): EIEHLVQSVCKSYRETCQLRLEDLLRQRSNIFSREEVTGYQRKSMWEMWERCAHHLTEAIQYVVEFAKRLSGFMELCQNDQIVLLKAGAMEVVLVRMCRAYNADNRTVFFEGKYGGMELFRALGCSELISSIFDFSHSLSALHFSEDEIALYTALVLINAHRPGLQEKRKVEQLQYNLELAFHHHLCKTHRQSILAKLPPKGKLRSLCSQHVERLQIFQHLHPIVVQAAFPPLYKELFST
Description: In Vitro RORc Ligand Binding Assay (25-[3H]hydroxycholesterol radioligand filtration). The settings on record: In Vitro RORc Ligand Binding Assay; Table 4; read-out: RORc IC50.

Turning to `C[C@H]1CCC(c2ccccc2)S(=O)(=O)N1Cc1ccc(C(=O)N2CCC[C@@H]2CO)cc1` (stereo partly drawn) [Example 291, (2-Hydroxymethyl-pyrrolidin-1-yl)-[4-((3S)-methyl-1,1-dioxo-6-phenyl-[1,2]thiazinan-2-ylmethyl)-phenyl]-methanone], the IC50 was determined as 911 nM. With `C[C@H]1CCC(c2ccccc2)S(=O)(=O)N1Cc1ccc(C(=O)NCC2CCOCC2)cc1` (stereo partly drawn) [Example 292, 4-((3S)-Methyl-1,1-dioxo-6-phenyl-[1,2]thiazinan-2-ylmethyl)-N-(tetrahydro-pyran-4-ylmethyl)-benzamide] the figure was 660 nM; with `C[C@H]1CCC(c2ccccc2)S(=O)(=O)N1Cc1ccc(C(=O)N2CCOC(C(=O)N(C)C)C2)cc1` (stereo partly drawn) [Example 293, 4-[4-((3S)-Methyl-1,1-dioxo-6-phenyl-[1,2]thiazinan-2-ylmethyl)-benzoyl]-morpholine-2-carboxylic acid dimethylamide], 8310 nM. Next, `C[C@H]1CCC(c2ccccc2)S(=O)(=O)N1Cc1ccc(C(=O)N2CCC(CCNS(C)(=O)=O)CC2)cc1` (stereo partly drawn) [Example 294, N-(2-{1-[4-((3S)-Methyl-1,1-dioxo-6-phenyl-[1,2]thiazinan-2-ylmethyl)-benzoyl]-piperidin-4-yl}-ethyl)-methanesulfonamide]: 1770 nM; `C[C@H]1CCC(c2ccccc2)S(=O)(=O)N1Cc1ccc(C(=O)N2CC(c3nncn3C)C2)cc1` (stereo partly drawn) [Example 295, [4-((3S)-Methyl-1,1-dioxo-6-phenyl-[1,2]thiazinan-2-ylmethyl)-phenyl]-[3-(4-methyl-4H-[1,2,4]triazol-3-yl)-azetidin-1-yl]-methanone]: 5350 nM; `C[C@H]1CCC(c2ccccc2)S(=O)(=O)N1Cc1ccc(C(=O)N2CCn3ccnc3C2)cc1` (stereo partly drawn) [Example 296, (5,6-Dihydro-8H-imidazo[1,2-a]pyrazin-7-yl)-[4-((3S)-methyl-1,1-dioxo-6-phenyl-[1,2]thiazinan-2-ylmethyl)-phenyl]-methanone]: 1290 nM. With `C[C@H]1CCC(c2ccccc2)S(=O)(=O)N1Cc1ccc(C(=O)N2CC(c3cc[nH]n3)C2)cc1` (stereo partly drawn) [Example 297, [4-((3S)-Methyl-1,1-dioxo-6-phenyl-[1,2]thiazinan-2-ylmethyl)-phenyl]-[3-(1H-pyrazol-3-yl)-azetidin-1-yl]-methanone] the figure was 2690 nM; with `C[C@H]1CCC(c2ccccc2)S(=O)(=O)N1Cc1ccc(C(=O)N2CCOC(C(N)=O)C2)cc1` (stereo partly drawn) [Example 298, 4-[4-((3S)-Methyl-1,1-dioxo-6-phenyl-[1,2]thiazinan-2-ylmethyl)-benzoyl]-morpholine-2-carboxylic acid amide], 4720 nM; with `CNC(=O)C1CN(C(=O)c2ccc(CN3[C@@H](C)CCC(c4ccccc4)S3(=O)=O)cc2)CCO1` (stereo partly drawn) [Example 299, 4-[4-((3S)-Methyl-1,1-dioxo-6-phenyl-[1,2]thiazinan-2-ylmethyl)-benzoyl]-morpholine-2-carboxylic acid methylamide], 4930 nM. With `C=C1CCC(c2ccccc2)S(=O)(=O)N(Cc2ccc(N3CCN(C(C)=O)CC3)cc2F)C1` (stereo not drawn) [Example 348, 1-{4-[3-Fluoro-4-(4-methylene-1,1-dioxo-7-phenyl-[1,2]thiazepan-2-ylmethyl)-phenyl]-piperazin-1-yl}-ethanone], the IC50 came to 49 nM. Regarding `CC(=O)N1CCN(c2ccc(CN3[C@H](C)CC(c4ccccc4)S3(=O)=O)c(F)c2)CC1` (stereo partly drawn) [Example 349, 1-{4-[3-Fluoro-4-((3R)-methyl-1,1-dioxo-5-phenyl-isothiazolidin-2-ylmethyl)-phenyl]-piperazin-1-yl}-ethanone], the IC50 was 310 nM.

In the case of `C[C@H]1CCC(c2ccccc2)S(=O)(=O)N1Cc1ccc(C(=O)N2CCC3(COC3)C2)cc1` (stereo partly drawn) [Example 354, [4-((3S)-Methyl-1,1-dioxo-6-phenyl-[1,2]thiazinan-2-ylmethyl)-phenyl]-(2-oxa-6-aza-spiro[3.4]oct-6-yl)-methanone], the IC50 was determined as 3010 nM. With `C[C@H]1CCC(c2ccccc2)S(=O)(=O)N1Cc1ccc(C(=O)N2C3CCC2C(C(N)=O)C3)cc1` (stereo partly drawn) [Example 355, 7-[4-((3S)-Methyl-1,1-dioxo-6-phenyl-[1,2]thiazinan-2-ylmethyl)-benzoyl]-7-aza-bicyclo[2.2.1]heptane-2-carboxylic acid amide], the IC50 was determined as 510 nM. Next, `C[C@H]1CCC(c2ccccc2)S(=O)(=O)N1Cc1ccc(C(=O)N2CC3(CCCOC3)C2)cc1` (stereo partly drawn) [Example 356, [4-((3S)-Methyl-1,1-dioxo-6-phenyl-[1,2]thiazinan-2-ylmethyl)-phenyl]-(6-oxa-2-aza-spiro[3.5]non-2-yl)-methanone]: 3170 nM; `C[C@H]1CCC(c2ccccc2)S(=O)(=O)N1Cc1ccc(C(=O)N2CCCC2CCNS(C)(=O)=O)cc1` (stereo partly drawn) [Example 357, N-(2-{1-[4-((3S)-Methyl-1,1-dioxo-6-phenyl-[1,2]thiazinan-2-ylmethyl)-benzoyl]-pyrrolidin-2-yl}-ethyl)-methanesulfonamide]: 108 nM; `C[C@H]1CCC(c2ccccc2)S(=O)(=O)N1Cc1ccc(C(=O)N2CCC3(CCOC3)C2)cc1` (stereo partly drawn) [Example 358, [4-((3S)-Methyl-1,1-dioxo-6-phenyl-[1,2]thiazinan-2-ylmethyl)-phenyl]-(2-oxa-7-aza-spiro[4.4]non-7-yl)-methanone]: 1220 nM. With `CC(=O)NCCC1CCN(C(=O)c2ccc(CN3[C@@H](C)CCC(c4ccccc4)S3(=O)=O)cc2)CC1` (stereo partly drawn) [Example 359, N-(2-{1-[4-((3S)-Methyl-1,1-dioxo-6-phenyl-[1,2]thiazinan-2-ylmethyl)-benzoyl]-piperidin-4-yl}-ethyl)-acetamide] the figure was 2030 nM; with `C[C@H]1CCC(c2ccccc2)S(=O)(=O)N1Cc1ccc(C(=O)N2C3CNC(=O)C2C3)cc1` (stereo partly drawn) [Example 360, 6-[4-((3S)-Methyl-1,1-dioxo-6-phenyl-[1,2]thiazinan-2-ylmethyl)-benzoyl]-3,6-diaza-bicyclo[3.1.1]heptan-2-one], 3450 nM; with `C[C@H]1CCC(c2ccccc2)S(=O)(=O)N1Cc1ccc(C(=O)N2CCOC3(CCOC3)C2)cc1` (stereo partly drawn) [Example 361, (2,6-Dioxa-9-aza-spiro[4.5]dec-9-yl)-[4-((3S)-methyl-1,1-dioxo-6-phenyl-[1,2]thiaznan-2-ylmethyl)-phenyl]-methanone], 641 nM. In the case of `C[C@H]1CCC(c2ccccc2)S(=O)(=O)N1Cc1ccc(C(=O)N2CCC3(CC2)COC3)cc1` (stereo partly drawn) [Example 362, [4-((3S)-Methyl-1,1-dioxo-6-phenyl-[1,2]thiazinan-2-ylmethyl)-phenyl]-(2-oxa-7-aza-spiro[3.5]non-7-yl)-methanone], the IC50 amounted to 903 nM. With `C[C@H]1CCC(c2ccccc2)S(=O)(=O)N1Cc1ccc(C(=O)N2CCN(C)C(=O)C2)cc1` (stereo partly drawn) [Example 363, 1-Methyl-4-[4-((3S)-methyl-1,1-dioxo-6-phenyl-[1,2]thiazinan-2-ylmethyl)-benzoyl]-piperazin-2-one] the figure was 2430 nM; with `C[C@H]1CCC(c2ccccc2)S(=O)(=O)N1Cc1ccc(C(=O)N2CC3COCC3C2)cc1` (stereo partly drawn) [Example 364, [4-((3S)-Methyl-1,1-dioxo-6-phenyl-[1,2]thiazinan-2-ylmethyl)-phenyl]-(tetrahydro-furo[3,4-c]pyrrol-5-yl)-methanone], 2920 nM.

Take `C[C@H]1CCC(c2ccccc2)S(=O)(=O)N1Cc1ccc(C(=O)N2CCc3cn[nH]c3C2)cc1` (stereo partly drawn) [Example 365, [4-((3S)-Methyl-1,1-dioxo-6-phenyl-[1,2]thiazinan-2-ylmethyl)-phenyl]-(1,4,5,7-tetrahydro-pyrazolo[3,4-c]pyridin-6-yl)-methanone]: the IC50 is 1350 nM. Next, `CC(=O)N1CC2(C1)CN(C(=O)c1ccc(CN3[C@@H](C)CCC(c4ccccc4)S3(=O)=O)cc1)C2` (stereo partly drawn) [Example 366, 1-{6-[4-((3S)-Methyl-1,1-dioxo-6-phenyl-[1,2]thiazinan-2-ylmethyl)-benzoyl]-2,6-diaza-spiro[3.3]hept-2-yl}-ethanone]: 5280 nM.

Take `CC(=O)N1CC2CC2(NC(=O)c2ccc(CN3[C@@H](C)CCC(c4ccccc4)S3(=O)=O)cc2)C1` (stereo partly drawn) [Example 367, N-(3-Acetyl-3-aza-bicyclo[3.1.0]hex-1-yl)-4-((3S)-methyl-1,1-dioxo-6-phenyl-[1,2]thiazinan-2-ylmethyl)-benzamide]: the IC50 was determined as 2270 nM. With `CC1CN(C(=O)c2ccc(CN3[C@@H](C)CCC(c4ccccc4)S3(=O)=O)cc2)CC(=O)N1` (stereo partly drawn) [Example 368, 6-Methyl-4-[4-((3S)-methyl-1,1-dioxo-6-phenyl-[1,2]thiazinan-2-ylmethyl)-benzoyl]-piperazin-2-one] the figure was 2360 nM; with `C[C@H]1CCC(c2ccccc2)S(=O)(=O)N1Cc1ccc(C(=O)NC2(C#N)CCC2)cc1` (stereo partly drawn) [Example 369, N-(1-Cyano-cyclobutyl)-4-((3S)-methyl-1,1-dioxo-6-phenyl-[1,2]thiazinan-2-ylmethyl)-benzamide], 3480 nM; with `C[C@H]1CCC(c2ccccc2)S(=O)(=O)N1Cc1ccc(C(=O)N2CC3(CCOCC3)C2)cc1` (stereo partly drawn) [Example 370, [4-((3S)-Methyl-1,1-dioxo-6-phenyl-[1,2]thiazinan-2-ylmethyl)-phenyl]-(7-oxa-2-aza-spiro[3.5]non-2-yl)-methanone], 1060 nM. Next, `C[C@H]1CCC(c2ccccc2)S(=O)(=O)N1Cc1ccc(C(=O)NCCC2CCCN(S(C)(=O)=O)C2)cc1` (stereo partly drawn) [Example 371, N-[2-(1-Methanesulfonyl-piperidin-3-yl)-ethyl]-4-((3S)-methyl-1,1-dioxo-6-phenyl-[1,2]thiazinan-2-ylmethyl)-benzamide]: 3630 nM. Next, `C[C@H]1CCC(c2ccccc2)S(=O)(=O)N1Cc1ccc(C(=O)N2CC3(CCOC3)C2)cc1` (stereo partly drawn) [Example 372, [4-((3S)-Methyl-1,1-dioxo-6-phenyl-[1,2]thiazinan-2-ylmethyl)-phenyl]-(6-oxa-2-aza-spiro[3.4]oct-2-yl)-methanone]: 3040 nM.

By IC50 is commonly meant the concentration that gives 50% inhibition.
